In PMC8893300, “A Dynamic Mass Redistribution Assay for the Human Sweet Taste Receptor Uncovers G-Protein Dependent Biased Ligands” (Frontiers in Pharmacology, 2022):
Values belong to the compound of their own block, whether it stands above or below them.

Legend:
[1] = test system: S1P response in R2/R3 U2OS cells; assay: Pathway blockers on S1P-mediated DMR response in R2/R3 U2OS cells; details: for % inhibition of the S1P DMR response: PTx overnight, U0126 2 μM, GF109203x 5 μM, GW583340 10 μM, tyrphostin 1 μM, GSK269962 2 μM, mean ± sd or average of two experiments
Description: (§1) Blocker stocks (250x) were prepared in DMSO or water and stored as aliquots at −20°C. Just before use, they were diluted to 2X their final concentration in assay buffer (D-PBS) at a final concentration of 0.4% DMSO. Concentrated stock solutions of the agonists somatostatin, carbachol, EGF, and sucralose were made in water or D-PBS while S1P was made up in 50% EtOH. Just before use, the agonists were diluted to 5X their final concentration in D-PBS at a final concentration of 0.4% DMSO. Final agonist concentrations were 10 μM somatostatin, 100 μM carbachol, 100–300 ng/ml EGF, 2 mM sucralose and 1 μM S1P. R2/R3 U2OS cells were plated as described above. The following day cells were washed on the Epic® with D-PBS/0.4% DMSO leaving a residual volume of 10 μl. 10 μl of D-PBS/0.4% DMSO was added to each well by hand followed by 20 μl of 2X pathway blocker. Cell plates were equilibrated on the Epic® for 90 min. After recording the baseline activity for 5 min, 10 μl of 5X agonist was added using the LHA and the DMR responses were monitored for an additional 40 min.
(§2) Cells were equilibrated at room temperature for 90 min in the Epic® reader with the indicated concentrations of pathway blockers or latrunculin A. In the case of PTx, cells were incubated over night at 37°C and on the day of the experiment PTx was replaced with buffer and cells were equilibrated in the Epic® reader as described above. A 5x-concentrated stock of agonist was then added onto the cells and DMR responses were recorded as described in Materials and Methods. […] Two to eight independent experiments were conducted with each blocker (number of independent experiments are indicated on the bar graph).

[2] = test system: somatostatin response in R2/R3 U2OS cells; assay: Pathway blockers on somatostatin-mediated DMR response in R2/R3 U2OS cells; details: for effect on the somatostatin DMR response, in words: latrunculin A 1 μM, wortmannin 200 nM, U0126 2 μM, GSK269962 2 μM
Description: as §1, §2

[3] = test system: carbachol response in R2/R3 U2OS cells; assay: Pathway blockers on carbachol-mediated DMR response in R2/R3 U2OS cells; details: for effect on the carbachol DMR response, in words: latrunculin A 1 μM, wortmannin 200 nM, U0126 2 μM, GSK269962 2 μM
Description: as §1, §2

[4] = test system: EGF response in R2/R3 U2OS cells; assay: Pathway blockers on EGF-mediated DMR response in R2/R3 U2OS cells; details: for % inhibition of the EGF DMR response / effect on the EGF DMR response, in words: 100–300 ng/ml EGF; for % inhibition of the EGF DMR response: PTx overnight, wortmannin 200 nM, U0126 2 μM, GF109203x 5 μM, mean ± sd; for effect on the EGF DMR response, in words: latrunculin A 1 μM, GW583340 10 μM, tyrphostin 1 μM, GSK269962 2 μM
Description: as §1, §2

[5] = test system: sucralose response (sweet taste receptor) in R2/R3 U2OS cells; assay: Pathway blockers on sucralose-mediated DMR response in R2/R3 U2OS cells; details: for effect on the sucralose DMR response, in words: latrunculin A 1 μM, PTx overnight, wortmannin 200 nM, U0126 2 μM
Description: as §1, §2

[6] = test system: parental U2OS cells; assay: DMR assay on parental U2OS cells (receptor-independent responses); assay type: cell-based
Description: The plates were incubated in the tissue culture hood for 20 min to allow cells to settle evenly at the bottom of the microplate and further cultured at 37°C in an atmosphere of 5% CO2 for 18–24 h. The next day, the cells were subjected to functional analysis using DMR. The lidded Epic® 384 microplate and polypropylene compound plate (Corning) were loaded into the carousel of the Epic® reader, the target plate was washed with DMSO matched D-PBS using the Corning Epic® Liquid Handling Accessory (LHA) and equilibrated in 25 μl of DMSO matched D-PBS for 90 min. […] When indicated, data for agonist dose-responses were normalized to data obtained with a maximum concentration of sucralose (1 mM) and then fitted and plotted using GraphPad Prism (San Diego, CA) and non-linear regression analysis.

[7] = molecular target: T1, human sweet taste receptor (hT1R2/hT1R3) coupled to Gα15 (Homo sapiens, UniProt Q7RTX0+Q8TE23); assay: FLIPR calcium mobilization assay, R2/R3 U2OS cells transduced with Gα15 baculovirus; assay type: cell-based; details: R2/R3 U2OS cells transduced with Gα15
T1 construct: expressed in transfected cells
T1 sequence (Q8TE23 20-839): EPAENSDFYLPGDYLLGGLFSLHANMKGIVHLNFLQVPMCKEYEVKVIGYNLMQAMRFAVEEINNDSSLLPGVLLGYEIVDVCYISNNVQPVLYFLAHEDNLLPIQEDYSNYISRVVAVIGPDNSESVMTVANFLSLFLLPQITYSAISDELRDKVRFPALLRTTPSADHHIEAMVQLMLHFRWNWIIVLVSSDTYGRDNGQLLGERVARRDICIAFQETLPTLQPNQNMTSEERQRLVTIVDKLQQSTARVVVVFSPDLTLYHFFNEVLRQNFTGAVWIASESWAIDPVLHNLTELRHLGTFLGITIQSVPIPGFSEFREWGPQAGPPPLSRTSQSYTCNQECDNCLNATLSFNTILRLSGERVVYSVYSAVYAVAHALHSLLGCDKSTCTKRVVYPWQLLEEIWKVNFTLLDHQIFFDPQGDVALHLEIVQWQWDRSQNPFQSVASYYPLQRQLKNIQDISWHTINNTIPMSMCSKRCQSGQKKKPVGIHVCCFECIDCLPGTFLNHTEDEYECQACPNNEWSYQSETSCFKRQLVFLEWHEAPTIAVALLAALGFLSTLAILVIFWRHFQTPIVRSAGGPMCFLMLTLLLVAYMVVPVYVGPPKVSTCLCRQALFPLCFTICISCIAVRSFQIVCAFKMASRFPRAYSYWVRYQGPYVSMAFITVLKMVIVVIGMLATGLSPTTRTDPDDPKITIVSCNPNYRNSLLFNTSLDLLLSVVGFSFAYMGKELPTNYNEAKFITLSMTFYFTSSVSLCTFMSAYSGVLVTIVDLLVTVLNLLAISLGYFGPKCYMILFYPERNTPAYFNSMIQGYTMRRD
T1 sequence (Q7RTX0 21-852): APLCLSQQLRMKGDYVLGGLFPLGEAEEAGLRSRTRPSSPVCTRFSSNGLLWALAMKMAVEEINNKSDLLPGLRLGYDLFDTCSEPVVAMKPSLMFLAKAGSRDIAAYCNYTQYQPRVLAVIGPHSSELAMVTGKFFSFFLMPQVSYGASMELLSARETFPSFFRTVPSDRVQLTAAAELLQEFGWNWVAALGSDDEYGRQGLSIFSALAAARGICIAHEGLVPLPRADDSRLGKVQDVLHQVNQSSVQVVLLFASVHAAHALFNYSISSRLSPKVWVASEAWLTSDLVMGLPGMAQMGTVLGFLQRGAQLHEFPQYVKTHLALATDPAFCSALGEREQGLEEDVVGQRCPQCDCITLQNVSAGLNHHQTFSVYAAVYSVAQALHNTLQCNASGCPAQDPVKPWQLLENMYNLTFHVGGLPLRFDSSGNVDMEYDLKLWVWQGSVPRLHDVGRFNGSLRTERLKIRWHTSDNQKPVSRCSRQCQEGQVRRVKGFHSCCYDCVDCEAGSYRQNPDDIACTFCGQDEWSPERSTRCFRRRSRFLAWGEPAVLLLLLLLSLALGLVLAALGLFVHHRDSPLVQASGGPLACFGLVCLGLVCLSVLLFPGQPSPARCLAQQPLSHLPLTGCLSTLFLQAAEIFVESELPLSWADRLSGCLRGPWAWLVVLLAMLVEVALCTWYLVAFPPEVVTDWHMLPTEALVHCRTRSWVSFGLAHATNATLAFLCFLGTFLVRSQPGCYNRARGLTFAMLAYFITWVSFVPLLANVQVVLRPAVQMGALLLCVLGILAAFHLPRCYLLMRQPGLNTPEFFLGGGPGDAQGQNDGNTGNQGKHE
Description: The Gα15 coding sequence was inserted in the HindIII-NotI sites and recombinant virus was generated using the Bac-to-Bac system (Life Technologies). Virus was further amplified by propagation in Sf9 cells grown in suspension using Sf900-II media. Virus titers were determined by plaque assay on Sf9 cells.
Cells were gently mixed with the virus at a multiplicity of infection (MOI) of 5. Using a multidrop, 70 μl per well of the cell and virus mixture was dispensed in a 384-well clear bottom plate (Fisher). After 24 h of incubation in a humidified 37°C tissue culture incubator, trichostatin A was added to a final concentration of 0.3 μM and the cells were incubated for another 18–24 h at 34°C. On the day of the experiment, cells were loaded with 4 μM of the calcium indicator Fluo-4 AM (Invitrogen) in D-PBS for 1 h at room temperature. After washing the cells with D-PBS using a cell washer (BioTek) and a 30-minute rest time, the cell plate and the compound plate were transferred into the FLIPR-Tetra (Molecular Devices). […] Loading and the FLIPR assay were run as described above. When indicated, data for agonist dose-responses were normalized to data obtained with a maximum concentration of sucralose (1 mM) and then fitted and plotted using GraphPad Prism (San Diego, CA) and non-linear regression analysis.
This value, that we termed pEC50Ratio (sucralose) or pEC50R (sucralose), was calculated with EC50 values obtained in the two assay systems. This transformation also allowed determination of an average and a standard error for the pEC50R (sucralose). The two sets of data (DMR and FLIPR data) were then analyzed with an un-paired t-test (α = 0.05). To calculate relative efficacy bias between the two assays, we captured the top asymptote value from each activity-normalized dose-response curve, as provided by the curve fit, calculated an average and a standard deviation (sd) for each agonist and then analyzed the data pairs with an un-paired t-test (α = 0.05). […] The following steps were followed: 1) Using the PRISM software, we re-analyzed each ligand’s dose-response data obtained in each assay with non-linear regression and the users-defined equation “New Operational Model with TauKa ratios” and retrieved logR values from the fits. 2) Subtracted each ligand’s logR value with that of our standard, the sucralose logR value, obtained from the same data set (each ligand dose-response assay data used in this analysis was accompanied with a sucralose dose-response ran on the same day), producing the ΔlogR value for leach ligand in each assay. 3) Calculated the mean and SEM from ΔlogR replicates (from three to nine independent dose-response analysis, in the two different assays). 4) Calculated ΔΔlogR values by subtracting the averaged ligands’ ΔlogR FLIPR values with the averaged ligands’ ΔlogR DMR values.

[8] = Homo sapiens, U2OS, read-out: % inhibition of the S1P DMR response
[9] = Homo sapiens, U2OS, read-out: % inhibition of the somatostatin DMR response
[10] = Homo sapiens, U2OS, read-out: % inhibition of the carbachol DMR response
[11] = Homo sapiens, U2OS, read-out: % inhibition of the sucralose DMR response

Compound: CN(C)CCCn1cc(C2=C(c3c[nH]c4ccccc34)C(=O)NC2=O)c2ccccc21 [GF109203x]
% inhibition of the S1P DMR response ([1]; 1 μM S1P): 15%
% inhibition of the somatostatin DMR response ([2]; 10 μM somatostatin, PTx overnight, GF109203x 5 μM, GW583340 10 μM, tyrphostin 1 μM, mean ± sd or average of two experiments): 8%
% inhibition of the carbachol DMR response ([3]; 100 μM carbachol, PTx overnight, GF109203x 5 μM, GW583340 10 μM, tyrphostin 1 μM, mean ± sd or average of two experiments): 67 ± 4%
% inhibition of the EGF DMR response [4]: 22 ± 11%
% inhibition of the sucralose DMR response ([5]; 2 mM sucralose, GF109203x 5 μM, GW583340 10 μM, tyrphostin 1 μM, mean ± sd or average of two experiments): −7 ± 10%

Compound: CCn1c(-c2nonc2N)nc2cnc(Oc3cccc(NC(=O)c4ccc(OCCN5CCOCC5)cc4)c3)cc21 [GSK269962]
% inhibition of the S1P DMR response ([1]; 1 μM S1P): 77 ± 14%
effect on the somatostatin DMR response, in words ([2]; 10 μM somatostatin): not affected
effect on the carbachol DMR response, in words ([3]; 100 μM carbachol): not affected
effect on the EGF DMR response, in words [4]: not affected
% enhancement of the sucralose DMR response ([5]; 2 mM sucralose, GSK269962 2 μM, mean ± sd, n = 3): 28 ± 11%

Compound: CS(=O)(=O)CCNCc1nc(-c2ccc3ncnc(Nc4ccc(OCc5cccc(F)c5)c(Cl)c4)c3c2)cs1 [GW583340]
inhibition at 10 µM [1, 8]: -16%
inhibition at 10 µM [2, 9]: -0.3%
inhibition at 10 µM [3, 10]: 7.6%
effect on the EGF DMR response, in words [4]: abolished
inhibition at 10 µM [5, 11]: 3.1%

Compound: C/C1=C/C(=O)O[C@@H]2C[C@@H](CC[C@H](C)/C=C\C=C\CC1)O[C@@](O)([C@@H]1CSC(=O)N1)C2 [Latrunculin A]
effect on the S1P DMR response, in words ([1]; 1 μM S1P, latrunculin A 1 μM): disrupted
effect on the somatostatin DMR response, in words ([2]; 10 μM somatostatin): disrupted
effect on the carbachol DMR response, in words ([3]; 100 μM carbachol): disrupted
effect on the EGF DMR response, in words [4]: disrupted
effect on the sucralose DMR response, in words ([5]; 2 mM sucralose): disrupted

Compound: N#CC(=C(/N)Sc1ccccc1N)/C(C#N)=C(/N)Sc1ccccc1N [U0126]
% inhibition of the S1P DMR response ([1]; 1 μM S1P): 19 ± 26%
effect on the somatostatin DMR response, in words ([2]; 10 μM somatostatin): no statistically significant effects
effect on the carbachol DMR response, in words ([3]; 100 μM carbachol): no statistically significant effects
% inhibition of the EGF DMR response [4]: 54 ± 15%
effect on the sucralose DMR response, in words ([5]; 2 mM sucralose): no statistically significant effects

Compound: COc1ccc(OC(C)C(=O)O)cc1 (centres unmarked) [lactisole, 2-(4-methoxyphenoxy)-propionic acid]
DMR response on parental U2OS cells, in words [6]: positive DMR response

response in the FLIPR assay, in words [7]: readily detected
Compound: OC[C@H]1O[C@@](CO)(O[C@H]2O[C@H](CO)[C@@H](O)[C@H](O)[C@H]2O)[C@@H](O)[C@@H]1O [sucrose]
DMR response on parental U2OS cells, in words [6]: produced significant DMR responses

Compound: COc1cc2ncnc(Nc3cccc(Cl)c3)c2cc1OC [tyrphostin, Tyrphostin AG 1478]
inhibition at 1 µM [1, 8]: -7%
inhibition at 1 µM [2, 9]: 3.1%
inhibition at 1 µM [3, 10]: -10.8%
effect on the EGF DMR response, in words [4]: abolished
inhibition at 1 µM [5, 11]: 2.6%

Compound: COC[C@H]1OC(=O)c2coc3c2[C@@]1(C)C1=C(C3=O)[C@@H]2CCC(=O)[C@@]2(C)C[C@H]1OC(C)=O [wortmannin]
% enhancement of the S1P DMR response ([1]; 1 μM S1P, wortmannin 200 nM, mean ± sd, n = 4): 61 ± 22%
effect on the somatostatin DMR response, in words ([2]; 10 μM somatostatin): no statistically significant effects
effect on the carbachol DMR response, in words ([3]; 100 μM carbachol): no statistically significant effects
inhibition at 0.2 µM ([4]; Homo sapiens, U2OS, read-out: % inhibition of the EGF DMR response): 42 ± 10%
effect on the sucralose DMR response, in words ([5]; 2 mM sucralose): no statistically significant effects
